Test system: blood myostatin
Test: Effect of compound A on blood myostatin in NAFLD patients, oral administration for 72 weeks versus placebo
Type: in vivo, human
Settings: 0.4 mg per day oral (0.2-mg tablet twice a day)
Description: An effect on blood myostatin at the time of the oral administration of 0.4 mg per day of the compound A (a 0.2-mg tablet of the compound A was administered twice a day at the time of fasting) to a patient of a nonalcoholic fatty liver disease (NAFLD) for 72 weeks was investigated by comparison to the administration of a placebo. […] It was clear from FIG. 1 that the administration of the compound A reduced the fasting blood myostatin concentration at 12 weeks and 72 weeks from the administration in a stepwise manner as compared to the placebo administration.

SMILES: CC[C@@H](Oc1cccc(CN(CCCOc2ccc(OC)cc2)c2nc3ccccc3o2)c1)C(=O)O [Compound A, (R)-2-[3-[[N-(benzoxazol-2-yl)-N-3-(4-methoxyphenoxy)propyl]aminomethyl]phenoxy]butyric acid]
- fasting blood myostatin concentration, change from baseline as compared to placebo (12 weeks after start of administration): reduced
- fasting blood myostatin concentration, change from baseline as compared to placebo (72 weeks after start of administration): reduced
